Consider 8 molecules from ChEMBL document CHEMBL1201862, “PubChem BioAssay data set” (2004).

A short description of assay [1]: Luminescence-based cell-based high throughput dose response assay to identify activators of the DAF-12 from the parasite S. stercoralis (ssDAF-12). In kind it is functional.
For assay [2], the target named is T1, Oxysterols receptor LXR-beta (Homo sapiens, UniProt P55055).
T1 sequence (P55055 whole entry): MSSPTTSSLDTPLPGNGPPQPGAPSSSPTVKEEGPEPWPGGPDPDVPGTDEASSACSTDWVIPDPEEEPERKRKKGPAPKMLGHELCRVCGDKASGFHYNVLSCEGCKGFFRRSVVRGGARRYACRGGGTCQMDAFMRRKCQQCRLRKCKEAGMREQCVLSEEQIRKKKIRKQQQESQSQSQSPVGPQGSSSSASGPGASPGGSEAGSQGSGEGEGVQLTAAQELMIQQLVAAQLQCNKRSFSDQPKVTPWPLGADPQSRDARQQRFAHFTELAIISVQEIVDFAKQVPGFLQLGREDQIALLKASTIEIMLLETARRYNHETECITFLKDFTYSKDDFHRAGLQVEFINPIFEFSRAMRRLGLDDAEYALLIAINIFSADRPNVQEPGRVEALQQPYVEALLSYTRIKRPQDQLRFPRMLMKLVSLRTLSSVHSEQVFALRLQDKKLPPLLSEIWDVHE
The assay is described as follows: LXR agonists, Gal4 luciferase reporter, dose response, counter-screen for ssDAF-12 agonist project, cell-based, luminescence, HEK293, S. stercoralis campaign (AID 720737). The following applies: read-out: IC50 (the source's name). The assay is classed as functional. Background: In a reporter assay the amount or activity of a reporter protein is the signal.

The nature of assay [3]: P. falciparum late gametocyte killing, dose response, luminescence (AID 1117278).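 Further: gametocytes exposed to compound for 24 hours.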 In kind it is functional, cell-based.
The nature of assay [4]: Jurkat T cell cytotoxicity, dose response, cytotoxicity control for P. falciparum gametocyte viability project, luminescence (AID 1117277).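 Further: potency reflects loss of cellular ATP meaning fewer viable cells.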 In kind it is functional, cell-based.
A short description of assay [5]: ADAM10 inhibitors, peptide cleavage, dose response, biochemical, QFRET (AID 743254).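 Further: ADAM10 enzyme with the DM2 quenched FRET peptide as substrate; EDANS fluorescence gain as the protease cuts the substrate; inhibitor potency against ADAM10 proteolytic activity.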
The target in assay [6] is T2, Heat shock factor protein 1 (Mus musculus, UniProt P38532).
T2 sequence (P38532 whole entry): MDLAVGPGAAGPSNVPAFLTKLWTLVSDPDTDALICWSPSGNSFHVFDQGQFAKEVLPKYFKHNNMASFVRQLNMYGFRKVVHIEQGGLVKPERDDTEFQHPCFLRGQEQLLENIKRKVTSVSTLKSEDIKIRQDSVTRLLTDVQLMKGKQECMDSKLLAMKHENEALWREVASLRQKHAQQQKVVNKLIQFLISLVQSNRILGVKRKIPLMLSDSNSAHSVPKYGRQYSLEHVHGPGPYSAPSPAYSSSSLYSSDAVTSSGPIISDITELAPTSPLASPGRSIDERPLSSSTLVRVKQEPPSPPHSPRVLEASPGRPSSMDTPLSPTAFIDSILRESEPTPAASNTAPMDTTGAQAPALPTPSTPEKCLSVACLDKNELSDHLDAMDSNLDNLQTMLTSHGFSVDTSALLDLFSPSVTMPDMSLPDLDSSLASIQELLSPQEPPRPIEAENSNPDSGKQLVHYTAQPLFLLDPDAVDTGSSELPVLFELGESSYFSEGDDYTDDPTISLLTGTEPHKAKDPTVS
The assay is described as follows: HSF1 potentiators in luciferase reporter cells, confirmation, cell-based, NIH3T3, luminescence, dose retest (AID 435004).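 Further: stress induced by proteasome inhibitor MG132 added 30 min after compound; luciferase reporter driven by HSF1 response element in NIH3T3 cells; actives raise luminescence as potentiators of the MG132 stress response.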 The assay is classed as functional.

In assay [7] the target is Disintegrin and metalloproteinase domain-containing protein 17 (Homo sapiens, UniProt P78536). In words: ADAM17 protease inhibitors, dose response, counter-screen for ADAM10 exosite inhibitor project, biochemical, quenched FRET substrate (AID 743253).
The nature of assay [8]: cytotoxicity in COV434 cells, dose response, cytotoxicity control for PAX8 inhibitor project, cell-based, plate reader, dry powder, SA7 (AID 743145). In kind it is functional.
Assay [9] is described as follows: IOSE-T80 ovarian epithelial cell cytotoxicity, dose response, cytotoxicity control for PAX8 inhibitor project, plate reader, dry powder samples (AID 743045). The assay is classed as functional, cell-based.
The nature of assay [10]: cytotoxicity in OVCAR4 cells, dose response, cytotoxicity control for PAX8 inhibitor project, cell-based, plate reader, dry powder, SA11 (AID 743150). In kind it is functional. To be noted: OVCAR-4.
The target in assay [11] is Paired box protein Pax-8 (Homo sapiens, UniProt Q06710). The assay is described as follows: inhibitors of PAX8-driven TPO luciferase reporter, dose response, RMG-I cells, cherry-pick (AID 687027).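 Further: luciferase reporter driven by Pax8 target thyroperoxidase promoter measured by SteadyGlo luminescence.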 In kind it is functional, cell-based.
Assay [12] in a line: NIH:OVCAR-3 ovarian cancer cell cytotoxicity, dose response, PAX8 inhibitor project, plate reader, dry powder samples (AID 743044). The assay is classed as functional, cell-based.
Assay [13] in a line: A2780 ovarian cancer cell cytotoxicity, dose response, cytotoxicity control, plate reader, dry powder samples (AID 743046). The assay is classed as functional, cell-based.
A short description of assay [14]: cytotoxicity dependent on PAX8, dose response, cell-based, plate reader, dry powder (AID 743049). The assay is classed as functional.
Assay [15] is described as follows: cytotoxicity in OV-90 ovarian cancer cells, dose response, PAX8 inhibitor project, cell-based, plate reader, dry powder, SA8 (AID 743149). In kind it is functional.
The nature of assay [16]: IGROV1 ovarian cancer cell cytotoxicity, dose response, PAX8 inhibitor project, plate reader, dry powder samples (AID 743043). The assay is classed as functional, cell-based. The following applies: IGROV-1.
A short description of assay [17]: cytotoxicity in COV362 ovarian cancer cells, dose response, cytotoxicity control for PAX8 inhibitor project, cell-based, plate reader, dry powder, SA12 (AID 743144). In kind it is functional.
Assay [18] can be described thus: Shn3 3'UTR reporter inhibitors, dose response, cell-based, Clone20 osteoblasts, firefly luciferase, cherry-picked (AID 624132).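 Further: firefly luciferase luminescence from reporter carrying the Shn3 3'UTR in osteoblasts.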 In kind it is functional.
In assay [19] the target is COUP transcription factor 2 (Homo sapiens, UniProt P24468). The assay is described as follows: Luminescence-based cell-based high throughput dose response assay to identify inhibitors of COUP-TFII (NR2F2). The assay is classed as functional.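 Further: HEK293 cells transiently cotransfected with COUP-TFII expression vector and reporter; luciferase reporter luminescence driven by COUP-TFII from the pX2-168 reporter plasmid.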
A short description of assay [20]: control 3'UTR Renilla luciferase suppression, dose response, counter-screen for Shn3 inhibitor project, cell-based, Clone20-Shn3RL, cherry-picked (AID 624133). The assay is classed as functional.
The nature of assay [21]: HepG2 cell cytotoxicity, dose response, cytotoxicity control for Shn3 inhibitor project, CellTiter-Glo, cherry-picked (AID 624134). In kind it is functional, cell-based. On the technique in general: ATP-based viability assays read luminescence as a measure of living cells.
In assay [22] the target is NAD-dependent protein deacylase sirtuin-5, mitochondrial (Homo sapiens, UniProt Q9NXA8). In words: SIRT5 desuccinylase inhibitors, dose response, biochemical, fluorescence imaging, cherry-pick, set 5 (AID 720591).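 Further: desuccinylation of succinyl peptide AMC substrate read as fluorescence after trypsin release; potency of inhibitors that lower fluorescence and may act on trypsin instead.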
Assay [23] can be described thus: cytotoxicity in OVCAR8 ovarian cancer cells, dose response, PAX8 project, cell-based, plate reader, dry powder samples (AID 743197). The assay is classed as functional. To be noted: OVCAR-8.
Assay [24] is described as follows: YAP1 pathway inhibition via CTGF transcript levels, dose response, cell-based, DLD1 colon cancer, RT-qPCR, cherry-pick (AID 1053122). The assay is classed as functional. The following applies: Cancer cell lines.
Assay [25] can be described thus: CTGF mRNA reduction under YAP1 overexpression, dose response, mechanism study for YAP1 pathway inhibitor project, DLD1 cells, RT-qPCR, cherry-pick (AID 1053127). The following applies: DLD-1. The assay is classed as functional, cell-based. On the technique in general: In qPCR the cycle at which signal appears reflects the starting amount.
The nature of assay [26]: HCT116 cell viability decrease, GSK3B pretreatment – CellTiter-Glo, IC50, dose response (AID 1117339). The assay is classed as functional. To be noted: HCT-116.
A short description of assay [27]: cytotoxicity toward Colo320 cells – cell-based, CellTiter-Glo luminescence, IC50, dose response (AID 1117334). In kind it is functional. The following applies: COLO 320.
Assay [28] in a line: Concentration-dependent survival of SW480 colon cancer line, luminescence detection with CellTiter-Glo, half-maximal inhibitory concentration (AID 1117338). In kind it is functional.
Assay [29] is described as follows: cytotoxicity toward HT-29 cells – cell-based, CellTiter-Glo luminescence, IC50, dose response (AID 1117330). The assay is classed as functional.
Assay [30] can be described thus: cytotoxicity toward HCT116 cells – cell-based, CellTiter-Glo luminescence, IC50, dose response (AID 1117332). In kind it is functional. The following applies: HCT-116.
Assay [31] is described as follows: SNU-C1 cell viability reduction, dose response, CellTiter-Glo luminescence (AID 1117323). The assay is classed as functional, cell-based.
Assay [32] is described as follows: RKO cell viability reduction, dose response, CellTiter-Glo luminescence (AID 1117322). The assay is classed as functional.
Assay [33] can be described thus: CellTiter-Glo luminescent dose response of DLD-1 viability loss (AID 1117352). In kind it is functional.

The source made the active and inactive calls.

By IC50 is commonly meant the concentration at which inhibition is half-maximal. What is called AC50 is the concentration giving half of the maximal activity seen.

Paired box protein Pax-8, sequence (Q06710 whole entry): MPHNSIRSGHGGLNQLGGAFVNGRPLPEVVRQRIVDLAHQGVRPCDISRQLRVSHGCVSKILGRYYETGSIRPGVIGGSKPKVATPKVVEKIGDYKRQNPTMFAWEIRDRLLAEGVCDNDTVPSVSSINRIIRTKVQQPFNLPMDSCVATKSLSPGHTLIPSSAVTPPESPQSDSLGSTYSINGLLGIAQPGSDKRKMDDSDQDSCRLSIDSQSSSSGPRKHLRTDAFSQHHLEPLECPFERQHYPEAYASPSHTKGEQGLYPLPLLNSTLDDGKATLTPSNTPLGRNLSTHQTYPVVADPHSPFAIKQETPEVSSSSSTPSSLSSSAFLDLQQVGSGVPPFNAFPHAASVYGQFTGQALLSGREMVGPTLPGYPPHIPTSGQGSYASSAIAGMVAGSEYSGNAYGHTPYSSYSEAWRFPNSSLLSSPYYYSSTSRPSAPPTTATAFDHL
Disintegrin and metalloproteinase domain-containing protein 17, sequence (P78536 whole entry, the tested form may be a part): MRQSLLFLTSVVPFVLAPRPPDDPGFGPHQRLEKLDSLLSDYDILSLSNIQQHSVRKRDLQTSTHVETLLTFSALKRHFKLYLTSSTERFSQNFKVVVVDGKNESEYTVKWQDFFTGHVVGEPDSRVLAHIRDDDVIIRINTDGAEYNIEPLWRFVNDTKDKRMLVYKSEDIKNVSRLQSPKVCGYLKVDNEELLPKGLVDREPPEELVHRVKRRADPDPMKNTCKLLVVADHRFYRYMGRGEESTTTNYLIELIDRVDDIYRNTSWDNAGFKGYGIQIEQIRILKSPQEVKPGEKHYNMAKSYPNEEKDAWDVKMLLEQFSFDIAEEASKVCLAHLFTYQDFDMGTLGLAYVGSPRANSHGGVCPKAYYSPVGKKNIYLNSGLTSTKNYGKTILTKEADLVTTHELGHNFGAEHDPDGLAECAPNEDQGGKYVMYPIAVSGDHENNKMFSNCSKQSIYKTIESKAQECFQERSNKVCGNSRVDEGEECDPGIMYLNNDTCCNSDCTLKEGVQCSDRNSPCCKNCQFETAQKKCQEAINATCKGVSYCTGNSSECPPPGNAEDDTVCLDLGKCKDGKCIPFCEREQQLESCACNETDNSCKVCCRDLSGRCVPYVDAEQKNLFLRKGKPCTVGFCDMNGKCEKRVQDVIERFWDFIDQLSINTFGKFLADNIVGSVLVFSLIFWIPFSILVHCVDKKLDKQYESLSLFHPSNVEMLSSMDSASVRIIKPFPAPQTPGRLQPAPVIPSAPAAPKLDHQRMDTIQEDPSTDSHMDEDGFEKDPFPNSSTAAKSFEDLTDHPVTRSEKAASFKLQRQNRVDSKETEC
COUP transcription factor 2, sequence (P24468 whole entry): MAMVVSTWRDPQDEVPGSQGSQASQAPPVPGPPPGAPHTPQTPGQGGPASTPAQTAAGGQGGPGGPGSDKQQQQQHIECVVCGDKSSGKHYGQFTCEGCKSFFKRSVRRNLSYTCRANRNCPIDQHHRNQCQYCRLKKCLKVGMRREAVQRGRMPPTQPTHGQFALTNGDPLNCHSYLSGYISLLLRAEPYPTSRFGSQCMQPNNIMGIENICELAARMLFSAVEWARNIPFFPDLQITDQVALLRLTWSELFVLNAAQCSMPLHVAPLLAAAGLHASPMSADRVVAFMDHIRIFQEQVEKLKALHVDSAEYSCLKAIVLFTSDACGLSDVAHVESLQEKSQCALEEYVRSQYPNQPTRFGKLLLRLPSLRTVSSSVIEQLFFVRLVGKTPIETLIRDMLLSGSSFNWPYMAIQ
NAD-dependent protein deacylase sirtuin-5, mitochondrial, sequence (Q9NXA8 whole entry): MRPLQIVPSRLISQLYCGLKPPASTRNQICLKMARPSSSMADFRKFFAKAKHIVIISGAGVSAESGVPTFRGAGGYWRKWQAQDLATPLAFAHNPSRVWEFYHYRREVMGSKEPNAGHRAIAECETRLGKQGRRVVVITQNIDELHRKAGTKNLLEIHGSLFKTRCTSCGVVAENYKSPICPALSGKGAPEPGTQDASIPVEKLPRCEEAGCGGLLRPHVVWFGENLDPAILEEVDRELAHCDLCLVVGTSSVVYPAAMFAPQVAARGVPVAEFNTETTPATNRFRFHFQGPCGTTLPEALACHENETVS

Regarding `Cc1ccc([N+](=O)[O-])c2c1C(N1CC(C)OC(C)C1)C(C)(C)O2` (stereo unspecified), the IC50 in assay [1] is > 67.6 µM (inactive). In addition, in [2], the EC50 is > 67.6 µM (inactive).
For the molecule `CC(=O)c1ccc(NC(=O)c2ccc(S(=O)(=O)c3ccccc3)cc2)cc1`, the IC50 in assay [3] is > 109 µM (inactive); in assay [4] it was > 83.3 µM (inactive).
Take `O=C(Nc1cccc(Cl)c1)c1cc(S(=O)(=O)NCCc2ccc(Cl)cc2)ccc1F`: the IC50 in [5] was > 7.72 µM (active); in [7] it was > 69.5 µM (inactive). The EC50 in [6] is > 260 µM (inactive).
For the molecule `O=C(CCCN1C(=O)/C(=C\c2cccc(Br)c2)SC1=S)Nc1cccnc1`, the AC50 in assay [8] is 31.6 µM (active); in [9] it was 24.8 µM (active); in assay [10] it was 30.3 µM (active); in assay [11], 7.56 µM (active); in assay [12] it was 12 µM (active); in [13], 17.9 µM (active). Besides, the concentration at half-maximal activity (AC50) in [14] is 12.1 µM (active); in assay [15], 25.7 µM (active); in assay [16] it was 12.5 µM (active); in assay [17], 30.3 µM (active).
Regarding `Cn1c(=O)c2nc(CCCCCCCCc3nc4ccccc4[nH]3)[nH]c2n(C)c1=O`, the values for the AC50 in assay [18], in [20] and in assay [21] were 3.98 µM (active), 2.89 µM (active) and 3.88 µM (active), respectively. In addition, in [19], the concentration for half-maximal inhibition (IC50) is 7.5 µM (active).
Take `CN(C)CCN1CCN(C2CN(Cc3cn(Cc4cccc(Cl)c4)nn3)S(=O)(=O)C2)CC1` (stereo unspecified): the AC50 in assay [22] was > 30 µM (inactive).
Take `O=C(Cc1ccncc1)N1CCCCN2[C@H](C1)[C@H](c1ccc(C#Cc3ccccc3F)cc1)[C@@H]2CO`: the AC50 is > 70 µM (inactive) in assay [23]; 7.15 µM (active) in assay [11]; 3.05 µM (active) in [12]; 0.175 µM (active) in [24]; 10.3 µM (active) in assay [16]; 0.102 µM (active) in assay [25].
Regarding `COC(=O)CCCCC(CCSS/C(CCO)=C(\C)N(C=O)Cc1cnc(C)nc1N)SC(C)=O` (stereo unspecified), the IC50 in assay [26], in assay [27], in assay [28], in assay [29], in assay [30] and in assay [31] was > 20 µM (inactive) each time. Besides, the IC50 in assay [32] and in assay [33] was > 20 µM (inactive) each time.
